The source of these data is ChEMBL document CHEMBL5291721, “A preclinical secondary pharmacology resource illuminates target-adverse drug reaction associations of marketed drugs” (Nat Commun, 2023).

In experiment [1] the target is Adenosine receptor A2a (Homo sapiens, UniProt P29274).
Experiment [2] has as its target Beta-1 adrenergic receptor (Homo sapiens, UniProt P08588). Type of experiment: functional.
For experiment [3], the target named is Beta-2 adrenergic receptor (Homo sapiens, UniProt P07550). Type of experiment: functional, cell-based.
For experiment [4], the target named is T1, Cholecystokinin receptor type A (Homo sapiens, UniProt P32238).
T1 sequence (P32238 whole entry): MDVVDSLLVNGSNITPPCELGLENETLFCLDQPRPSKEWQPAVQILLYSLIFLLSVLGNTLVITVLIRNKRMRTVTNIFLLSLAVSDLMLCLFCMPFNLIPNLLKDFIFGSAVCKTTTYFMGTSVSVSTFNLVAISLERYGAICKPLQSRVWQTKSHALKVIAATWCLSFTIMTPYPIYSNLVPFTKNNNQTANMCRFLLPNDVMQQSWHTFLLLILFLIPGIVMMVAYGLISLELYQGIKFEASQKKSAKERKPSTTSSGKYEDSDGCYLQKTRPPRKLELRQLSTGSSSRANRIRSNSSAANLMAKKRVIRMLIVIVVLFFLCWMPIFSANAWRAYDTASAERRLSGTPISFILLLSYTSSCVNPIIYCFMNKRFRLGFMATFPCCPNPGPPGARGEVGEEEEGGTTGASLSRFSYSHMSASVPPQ

Experiment [5] deals with Gamma-aminobutyric acid receptor subunit alpha-1 (Rattus norvegicus, UniProt P62813). The experiment is classed as functional.
Experiment [6] has as its target Growth hormone secretagogue receptor type 1 (Homo sapiens, UniProt Q92847).
For experiment [7], the target named is Glutamate receptor ionotropic, NMDA 1 (Rattus norvegicus, UniProt P35439).
Experiment [8] addresses T2, 5-hydroxytryptamine receptor 2C (Homo sapiens, UniProt P28335).
T2 sequence (P28335 whole entry): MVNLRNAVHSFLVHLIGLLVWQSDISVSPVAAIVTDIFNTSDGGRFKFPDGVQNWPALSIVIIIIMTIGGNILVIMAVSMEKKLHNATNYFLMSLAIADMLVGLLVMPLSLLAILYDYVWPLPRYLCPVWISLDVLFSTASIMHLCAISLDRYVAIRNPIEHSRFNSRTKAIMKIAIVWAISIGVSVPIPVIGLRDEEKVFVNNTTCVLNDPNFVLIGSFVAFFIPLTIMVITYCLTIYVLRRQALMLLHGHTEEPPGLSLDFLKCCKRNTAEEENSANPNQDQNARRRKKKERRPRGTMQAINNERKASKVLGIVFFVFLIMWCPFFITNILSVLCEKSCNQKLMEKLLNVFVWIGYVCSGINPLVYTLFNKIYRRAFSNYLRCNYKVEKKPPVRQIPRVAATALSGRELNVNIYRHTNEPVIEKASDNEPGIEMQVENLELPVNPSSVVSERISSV

Experiment [9] deals with Kappa-type opioid receptor (Homo sapiens, UniProt P41145).
The target of experiment [10] is T3, Thromboxane A2 receptor (Homo sapiens, UniProt P21731).
T3 sequence (P21731 whole entry): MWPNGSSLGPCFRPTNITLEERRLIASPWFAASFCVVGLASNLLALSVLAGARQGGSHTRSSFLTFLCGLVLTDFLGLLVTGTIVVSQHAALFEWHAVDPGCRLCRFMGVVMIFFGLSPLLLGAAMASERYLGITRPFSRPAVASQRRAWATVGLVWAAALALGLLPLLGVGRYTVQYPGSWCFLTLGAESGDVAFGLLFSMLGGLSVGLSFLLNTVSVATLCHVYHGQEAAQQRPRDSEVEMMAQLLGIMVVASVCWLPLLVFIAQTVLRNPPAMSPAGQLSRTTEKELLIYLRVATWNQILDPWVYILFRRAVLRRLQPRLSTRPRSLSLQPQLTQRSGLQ

The target in experiment [11] is Histamine H3 receptor (Homo sapiens, UniProt Q9Y5N1).
Note: assay procedure not described here.

Sequence of Histamine H3 receptor (Q9Y5N1 whole entry): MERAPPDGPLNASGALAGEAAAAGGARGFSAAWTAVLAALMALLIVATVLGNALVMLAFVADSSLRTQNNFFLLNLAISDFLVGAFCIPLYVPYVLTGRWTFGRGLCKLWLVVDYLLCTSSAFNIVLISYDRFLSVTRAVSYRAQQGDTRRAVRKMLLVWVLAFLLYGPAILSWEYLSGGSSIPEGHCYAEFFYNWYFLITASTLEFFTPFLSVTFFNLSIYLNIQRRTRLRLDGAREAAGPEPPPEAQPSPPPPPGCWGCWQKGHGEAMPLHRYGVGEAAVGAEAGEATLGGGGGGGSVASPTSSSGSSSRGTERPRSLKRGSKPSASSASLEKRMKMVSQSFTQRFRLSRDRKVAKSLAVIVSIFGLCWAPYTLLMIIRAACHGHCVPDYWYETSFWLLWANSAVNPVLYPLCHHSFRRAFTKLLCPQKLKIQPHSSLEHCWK
Sequence of Gamma-aminobutyric acid receptor subunit alpha-1 (P62813 whole entry): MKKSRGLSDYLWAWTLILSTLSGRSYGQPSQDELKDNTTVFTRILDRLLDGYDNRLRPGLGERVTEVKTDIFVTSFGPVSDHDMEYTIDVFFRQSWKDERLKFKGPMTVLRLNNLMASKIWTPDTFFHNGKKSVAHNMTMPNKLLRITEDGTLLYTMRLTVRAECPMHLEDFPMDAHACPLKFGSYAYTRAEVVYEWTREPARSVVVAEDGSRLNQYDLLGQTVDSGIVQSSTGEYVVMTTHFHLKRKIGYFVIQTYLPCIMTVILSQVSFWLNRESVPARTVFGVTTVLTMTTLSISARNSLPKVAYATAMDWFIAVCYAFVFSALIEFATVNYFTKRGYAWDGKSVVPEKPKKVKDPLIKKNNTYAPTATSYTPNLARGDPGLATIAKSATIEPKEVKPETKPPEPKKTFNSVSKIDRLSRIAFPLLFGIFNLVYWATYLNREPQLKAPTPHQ
Sequence of Growth hormone secretagogue receptor type 1 (Q92847 whole entry): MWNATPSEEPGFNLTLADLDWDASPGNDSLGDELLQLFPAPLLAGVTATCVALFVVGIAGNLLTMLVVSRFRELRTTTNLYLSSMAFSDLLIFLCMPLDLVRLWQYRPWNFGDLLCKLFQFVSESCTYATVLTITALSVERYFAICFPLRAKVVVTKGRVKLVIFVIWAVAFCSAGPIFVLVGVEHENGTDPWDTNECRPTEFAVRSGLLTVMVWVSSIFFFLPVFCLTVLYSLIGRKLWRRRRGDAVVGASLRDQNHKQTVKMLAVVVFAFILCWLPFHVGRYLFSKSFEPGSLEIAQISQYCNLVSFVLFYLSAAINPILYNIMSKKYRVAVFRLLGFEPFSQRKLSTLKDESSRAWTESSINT
Sequence of Adenosine receptor A2a (P29274 whole entry): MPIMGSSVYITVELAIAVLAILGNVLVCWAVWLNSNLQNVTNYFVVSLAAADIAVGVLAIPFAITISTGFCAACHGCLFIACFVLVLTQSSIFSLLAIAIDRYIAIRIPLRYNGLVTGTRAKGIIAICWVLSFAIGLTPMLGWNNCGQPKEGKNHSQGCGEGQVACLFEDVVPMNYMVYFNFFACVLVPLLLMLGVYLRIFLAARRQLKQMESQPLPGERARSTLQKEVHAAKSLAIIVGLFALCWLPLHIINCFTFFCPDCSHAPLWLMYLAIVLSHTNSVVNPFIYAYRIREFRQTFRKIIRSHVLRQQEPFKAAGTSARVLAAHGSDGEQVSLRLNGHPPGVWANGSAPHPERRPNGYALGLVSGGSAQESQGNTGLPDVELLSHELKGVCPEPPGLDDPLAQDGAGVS
Sequence of Beta-1 adrenergic receptor (P08588 whole entry): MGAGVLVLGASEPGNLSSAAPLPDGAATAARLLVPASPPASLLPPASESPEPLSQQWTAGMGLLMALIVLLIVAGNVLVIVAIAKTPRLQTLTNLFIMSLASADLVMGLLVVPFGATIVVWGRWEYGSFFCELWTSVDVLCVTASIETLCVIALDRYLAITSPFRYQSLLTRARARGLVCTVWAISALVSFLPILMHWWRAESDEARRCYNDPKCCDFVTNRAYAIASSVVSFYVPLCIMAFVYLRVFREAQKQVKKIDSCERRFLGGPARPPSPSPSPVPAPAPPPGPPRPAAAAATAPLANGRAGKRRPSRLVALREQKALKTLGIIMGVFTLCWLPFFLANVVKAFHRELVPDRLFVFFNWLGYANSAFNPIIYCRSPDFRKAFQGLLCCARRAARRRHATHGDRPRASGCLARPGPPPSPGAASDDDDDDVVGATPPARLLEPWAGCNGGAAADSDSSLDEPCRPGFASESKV
Sequence of Beta-2 adrenergic receptor (P07550 whole entry): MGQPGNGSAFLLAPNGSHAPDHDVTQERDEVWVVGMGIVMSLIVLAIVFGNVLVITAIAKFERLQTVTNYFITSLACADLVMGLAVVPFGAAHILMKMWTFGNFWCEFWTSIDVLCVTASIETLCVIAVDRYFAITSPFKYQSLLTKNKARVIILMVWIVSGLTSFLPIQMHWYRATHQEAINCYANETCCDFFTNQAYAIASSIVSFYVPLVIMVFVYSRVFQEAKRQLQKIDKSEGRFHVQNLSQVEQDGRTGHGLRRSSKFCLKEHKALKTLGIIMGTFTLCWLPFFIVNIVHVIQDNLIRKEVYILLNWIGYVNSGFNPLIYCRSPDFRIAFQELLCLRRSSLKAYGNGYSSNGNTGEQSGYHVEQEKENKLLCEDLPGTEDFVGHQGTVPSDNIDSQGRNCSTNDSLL
Sequence of Kappa-type opioid receptor (P41145 whole entry): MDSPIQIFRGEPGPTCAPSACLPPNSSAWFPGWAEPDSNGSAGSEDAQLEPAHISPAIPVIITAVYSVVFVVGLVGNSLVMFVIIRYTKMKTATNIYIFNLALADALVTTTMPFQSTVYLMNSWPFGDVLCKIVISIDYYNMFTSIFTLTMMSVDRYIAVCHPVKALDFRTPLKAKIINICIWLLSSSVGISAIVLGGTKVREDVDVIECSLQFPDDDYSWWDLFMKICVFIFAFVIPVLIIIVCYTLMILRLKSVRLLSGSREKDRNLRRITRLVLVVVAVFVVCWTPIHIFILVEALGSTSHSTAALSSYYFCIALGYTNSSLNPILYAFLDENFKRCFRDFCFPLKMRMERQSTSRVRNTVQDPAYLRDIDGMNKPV

With `CC(/C=C1\SC(=S)N(CC(=O)O)C1=O)=C\c1ccccc1`, the AC50 was 26 µM in experiment [1]; 26 µM in experiment [2]; over 30 µM in experiment [3]; over 30 µM in experiment [4]; over 30 µM in [5]; over 30 µM in experiment [6]. For the same compound, the concentration at half-maximal activity (AC50) in experiment [7] is over 30 µM; in experiment [8], 6.4 µM; in experiment [9], 28 µM; in experiment [10], 27 µM; in experiment [11] it was over 30 µM.
In the case of `O=C1CN2Cc3c(ccc(Cl)c3Cl)N=C2N1` [ANAGRELIDE], the AC50 is over 30 µM in [1]; over 10 µM in experiment [2]; over 30 µM in experiment [3]; over 30 µM in experiment [4]; over 10 µM in [5]; over 30 µM in [6]. The concentration at half-maximal activity (AC50) in experiment [7] is over 10 µM; in experiment [8], over 30 µM; in experiment [9], over 10 µM; in experiment [10], over 30 µM; in [11], over 10 µM.
Regarding `CCc1oc2ccccc2c1C(=O)c1cc(Br)c(O)c(Br)c1` [BENZBROMARONE], the AC50 in [1] was over 30 µM; in experiment [2], 29 µM; in experiment [3], over 30 µM; in experiment [4] it was over 30 µM; in experiment [5], over 30 µM; in experiment [6], over 30 µM. Besides, the AC50 in [7] is over 10 µM; in experiment [8] it was over 30 µM; in [9] it was over 10 µM; in experiment [10] it was 29 µM; in experiment [11] it was over 30 µM.
For `[H]/N=C(\N/C(=N/[H])NCCCCCCNC(=N)NC(=N)Nc1ccc(Cl)cc1)Nc1ccc(Cl)cc1` [CHLORHEXIDINE], the AC50 in experiment [1] is over 30 µM; in [2], 1.4 µM; in [3] it was over 30 µM; in [4], 15.9 µM; in experiment [5], over 10 µM; in [6] it was 1 µM. The AC50 was over 10 µM in experiment [7], 5.4 µM in [8], 3.99 µM in [9] and over 30 µM in experiment [10].
Turning to `COC(=O)[C@H](c1ccccc1Cl)N1CCc2sccc2C1` [CLOPIDOGREL], the AC50 in experiment [1], in [3], in experiment [4], in [5], in experiment [6] and in experiment [7] was over 30 µM in each case. The AC50 in experiment [8] was over 30 µM; in experiment [9] it was 14.9 µM; in experiment [10] it was over 30 µM; in experiment [11] it was over 30 µM.
Consider `Nc1nc(O)c2ncn(COC(CO)CO)c2n1` [GANCICLOVIR], for which the half-maximal activity concentration (AC50) in experiment [1], in [2], in experiment [3], in experiment [4], in experiment [5] and in experiment [6] was over 30 µM each time. The AC50 in experiment [7], in experiment [8], in [9], in [10] and in experiment [11] was over 30 µM in each case.
Consider `Cc1cnc(NC(=O)C2=C(O)c3ccccc3S(=O)(=O)N2C)s1` [MELOXICAM], for which the AC50 in experiment [1] was over 30 µM; in experiment [2], over 10 µM; in experiment [3] it was over 30 µM; in [4], over 30 µM; in [5] it was over 10 µM; in experiment [6], over 30 µM. For the same compound, the concentration at half-maximal activity (AC50) in experiment [7] is over 10 µM; in experiment [8], over 10 µM; in [9] it was over 10 µM; in experiment [10], over 30 µM; in experiment [11], over 10 µM.
On to `CC[C@@H](CO)NC(=O)[C@@H]1C=C2c3cccc4[nH]cc(c34)C[C@H]2N(C)C1` [METHYLERGONOVINE], for which the AC50 in [1], in experiment [3], in [4], in experiment [5], in [6] and in [7] was over 30 µM each time. The concentration at half-maximal activity (AC50) in experiment [8] was 0.12 µM; in [9], over 30 µM; in experiment [10] it was over 30 µM; in [11], over 30 µM.
Turning to `COc1ccnc(C[S+]([O-])c2nc3ccc(OC(F)F)cc3[nH]2)c1OC` (stereo unspecified) [PANTOPRAZOLE], the AC50 in experiment [1] is over 30 µM; in [2] it was over 10 µM; in experiment [3] it was over 30 µM; in experiment [4] it was over 30 µM; in experiment [5] it was over 10 µM; in experiment [6], over 30 µM. Besides, the AC50 in experiment [7] is over 10 µM; in experiment [8] it was over 30 µM; in experiment [9], over 10 µM; in [10] it was over 30 µM; in experiment [11], over 10 µM.
Regarding `O=C1NC(=O)C(c2ccccc2)(c2ccccc2)N1` [PHENYTOIN], the half-maximal activity concentration (AC50) in [1], in experiment [2], in [3], in experiment [4], in experiment [5] and in [6] was over 30 µM each time. Moreover, the concentration at half-maximal activity (AC50) is over 10 µM in experiment [7]; over 30 µM in experiment [8]; over 10 µM in experiment [9]; over 30 µM in experiment [10]; over 30 µM in experiment [11].
As to `CC(C)C[C@H](CN)CC(=O)O` [PREGABALIN], the half-maximal activity concentration (AC50) in experiment [1], in [2], in experiment [3], in [4], in experiment [5] and in experiment [6] was over 30 µM throughout. Besides, the AC50 in experiment [7], in experiment [8], in experiment [9], in experiment [10] and in [11] was over 30 µM each time.
Consider `CC(C)N(CCCCOCC(=O)NS(C)(=O)=O)c1cnc(-c2ccccc2)c(-c2ccccc2)n1` [SELEXIPAG], for which the half-maximal activity concentration (AC50) in experiment [1], in experiment [2], in experiment [3], in [4], in experiment [5] and in [6] was over 30 µM each time. Moreover, the half-maximal activity concentration (AC50) in experiment [7] was over 30 µM; in experiment [8] it was over 30 µM; in [9] it was 29 µM; in experiment [10] it was 23.9 µM; in experiment [11], over 30 µM.
For the compound `CC(=O)S[C@@H]1CC2=CC(=O)CC[C@]2(C)[C@H]2CC[C@@]3(C)[C@@H](CC[C@@]34CCC(=O)O4)[C@H]12` [SPIRONOLACTONE], the concentration at half-maximal activity (AC50) in experiment [1] was over 30 µM; in [2] it was over 30 µM; in [3], over 30 µM; in experiment [4], over 30 µM; in experiment [5], over 10 µM; in experiment [6] it was over 30 µM. Further, the AC50 in experiment [7] was over 10 µM; in [8] it was over 30 µM; in [9], 14.8 µM; in [10], over 30 µM; in [11], over 30 µM.
On to `Cc1cc(CC(=O)O)n(C)c1C(=O)c1ccc(Cl)cc1` [ZOMEPIRAC], for which the AC50 in experiment [1], in [2], in experiment [3], in experiment [4], in [5] and in experiment [6] was over 30 µM throughout. Besides, the AC50 in experiment [7], in experiment [8], in experiment [9], in experiment [10] and in experiment [11] was over 30 µM throughout.

Broadly, the AC50 is the midpoint of the concentration-response curve, whichever way the signal moves.
